One assay addresses HLA-B*0702 (Homo sapiens, UniProt P01889). Put plainly: biochemical.
The next assay concerns the target B*3501 (Homo sapiens, UniProt P01889, A329T/A93T/A95T/C349S/D201E/D98Y/E176V/E187L/E204Q/E69T/I218V/K202T/L119I/Q94N/R155S/R180L/S121R/S35A/S48A/T118I/V127L/V306I/V36M/Y140S/Y91F). Put plainly: biochemical.
Another assay deals with B*5301 (Homo sapiens, UniProt P01889, A329T/A93T/A95T/C349S/D201E/D98Y/E176V/E187L/E204Q/E69T/G107R/I218V/K202T/L105A/L119I/N104I/Q94N/R106L/R155S/R180L/S101N/S121R/S35A/S48A/T118I/V127L/V306I/V36M/Y140S/Y91F). Put plainly: biochemical.
The target in the next assay is B*5401 (Homo sapiens, UniProt P01889, A329T/C349S/D138N/D201E/E176V/E187T/E204Q/E69G/I76V/K202T/L119W/R155S/R180L/S121T/S35A/S48A/V127L/V306I/V36M/Y140L). Description: biochemical.
The next assay deals with DRB1*0301 (DR3) (Homo sapiens, UniProt P01903+P01911, A100K/A102G/A103R/A169T/F55Y/I96L/K41T/L162R/M171V/P40S/Q125H/Q178H/Q39Y/R42S/S66N/T106N/T262R/W38E/Y61H). The class given is binding.

In patent US20040048790A1, “Inducing cellular immune responses to p53 using peptide and nucleic acid compositions” (priority 1999, published 2004) one finds IC50 data, which are given here for 22 compounds.

No end group written: not given here.

Chain of DRB1*0301 (DR3) (P01903 26-254 limits assumed, other chains not shown): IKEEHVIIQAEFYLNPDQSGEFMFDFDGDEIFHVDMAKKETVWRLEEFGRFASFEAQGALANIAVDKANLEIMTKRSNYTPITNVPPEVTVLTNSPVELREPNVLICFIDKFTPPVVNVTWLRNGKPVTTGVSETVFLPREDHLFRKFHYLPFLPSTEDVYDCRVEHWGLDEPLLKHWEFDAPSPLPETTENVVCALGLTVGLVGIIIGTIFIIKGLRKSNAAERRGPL

On to `CC(C)C[C@H](NC(=O)[C@@H]1CCCN1C(=O)[C@H](Cc1c[nH]c2ccccc12)NC(=O)[C@H](CO)NC(=O)[C@@H]1CCCN1C(=O)[C@@H](N)Cc1ccccc1)C(=O)N[C@@H](CO)C(=O)N[C@@H](CO)C(=O)N[C@@H](CO)C(=O)N[C@H](C(=O)O)C(C)C` [p53.88.F1], for which the IC50 at HLA-B*0702 is 3.2 nM; on B*3501, 72 nM; at B*5301, 93 nM; against B*5401, 0.3 nM.
For FPILTIITL [p53.249.F1], the IC50 at HLA-B*0702 worked out at 6.5 nM; against B*3501, 8 nM; on B*5301 it was 7.2 nM; against B*5401, 5 nM.
For `CC(C)C[C@H](NC(=O)[C@@H]1CCCN1C(=O)[C@H](Cc1c[nH]c2ccccc12)NC(=O)[C@H](CO)NC(=O)[C@@H]1CCCN1C(=O)[C@H](C)NC(=O)[C@@H]1CCCN1C(=O)[C@H](C)NC(=O)[C@@H]1CCCN1C(=O)[C@@H](N)Cc1ccccc1)C(=O)O` [p53.84.F1], the IC50 on B*3501 was 5.1 nM; against B*5401, 1.7 nM.
In the case of `CC[C@H](C)[C@H](NC(=O)[C@@H]1CCCN1C(=O)[C@@H](NC(=O)[C@@H]1CCCN1C(=O)[C@H](C)NC(=O)[C@H](C)NC(=O)[C@@H]1CCCN1C(=O)[C@H](C)NC(=O)[C@@H]1CCCN1C(=O)[C@@H](N)Cc1ccccc1)[C@@H](C)O)C(=O)O` [p53.74.F1110], the IC50 was 1.5 nM on HLA-B*0702, 277 nM against B*3501, 127 nM at B*5301 and 5.3 nM against B*5401.
Consider `CC[C@H](C)[C@H](NC(=O)[C@@H]1CCCN1C(=O)[C@@H]1CCCN1C(=O)[C@H](C)NC(=O)[C@H](C)NC(=O)[C@H](CCC(=O)O)NC(=O)[C@@H]1CCCN1C(=O)[C@H](CCSC)NC(=O)[C@H](CCCNC(=N)N)NC(=O)[C@@H]1CCCN1C(=O)[C@@H](N)Cc1ccccc1)C(=O)O` [p53.63.F1111], for which the IC50 against B*3501 turned out to be 5540 nM; at B*5301, 5470 nM; on B*5401 it was 2.9 nM.
Consider `CC[C@H](C)[C@H](NC(=O)[C@H](CC(=O)O)NC(=O)[C@H](CC(=O)O)NC(=O)[C@@H]1CCCN1C(=O)[C@H](CO)NC(=O)[C@H](CC(C)C)NC(=O)[C@H](CCSC)NC(=O)[C@H](CC(C)C)NC(=O)[C@@H](N)CC(=O)O)C(=O)N[C@@H](CCC(=O)O)C(=O)N[C@@H](CCC(N)=O)C(=O)N[C@@H](Cc1c[nH]c2ccccc12)C(=O)N[C@@H](Cc1ccccc1)C(=O)N[C@H](C(=O)N[C@@H](CCC(=O)O)C(=O)O)[C@@H](C)O`, for which, at DRB1*0301 (DR3), the IC50 is above 10000 nM.
On to `CC[C@H](C)[C@H](NC(=O)[C@@H]1CCCN1C(=O)[C@H](C)NC(=O)[C@H](C)NC(=O)[C@@H]1CCCN1C(=O)[C@@H](NC(=O)[C@@H]1CCCN1C(=O)[C@@H](N)Cc1ccccc1)[C@@H](C)O)C(=O)O` [p53.79.F118], for which the IC50 at HLA-B*0702 came out at 90 nM; against B*3501, 5140 nM; on B*5301 it was 6200 nM; at B*5401 it was 7.7 nM.
With `CC(C)C[C@H](NC(=O)[C@H](CCC(N)=O)NC(=O)[C@@H](NC(=O)[C@@H]1CCCN1)C(C)C)C(=O)N[C@@H](Cc1c[nH]c2ccccc12)C(=O)N[C@H](C(=O)N[C@@H](CC(=O)O)C(=O)N[C@@H](CO)C(=O)N[C@H](C(=O)N1CCC[C@H]1C(=O)N1CCC[C@H]1C(=O)N1CCC[C@H]1C(=O)NCC(=O)N[C@H](C(=O)N[C@@H](CCCNC(=N)N)C(=O)O)[C@@H](C)O)[C@@H](C)O)C(C)C`, the IC50 against DRB1*0301 (DR3) was above 10000 nM.
Still for that read-out and setting: the value for `CC(C)C[C@H](NC(=O)[C@H](CCCCN)NC(=O)[C@H](Cc1c[nH]c2ccccc12)NC(=O)[C@H](CC(C)C)NC(=O)[C@H](CC(=O)O)NC(=O)[C@H](CO)NC(=O)[C@H](Cc1ccccc1)NC(=O)[C@@H](NC(=O)[C@H](CCC(=O)O)NC(=O)[C@H](CCC(N)=O)NC(=O)[C@H](CO)NC(=O)[C@H](CC(C)C)NC(=O)[C@@H]1CCCN1C(=O)[C@@H]1CCCN1C(=O)[C@@H](N)CCC(=O)O)[C@@H](C)O)C(=O)O` was above 10000 nM.
Same read-out and setting: the value for `CC[C@H](C)[C@H](NC(=O)[C@H](CCC(N)=O)NC(=O)[C@H](CC(C)C)NC(=O)[C@@H](NC(=O)[C@H](Cc1ccccc1)NC(=O)[C@H](Cc1ccc(O)cc1)NC(=O)[C@H](CCC(=O)O)NC(=O)CNC(=O)[C@H](CC(=O)O)NC(=O)[C@H](CC(C)C)NC(=O)[C@@H]1CCCN1C(=O)[C@H](CCCCN)NC(=O)[C@@H](N)CCCCN)[C@@H](C)O)C(=O)N[C@@H](CCCNC(=N)N)C(=O)NCC(=O)O` was above 10000 nM; that for `CC[C@H](C)[C@H](NC(=O)[C@@H](NC(=O)[C@@H](NC(=O)[C@H](CS)NC(=O)[C@H](CC(=O)O)NC(=O)[C@H](CO)NC(=O)CNC(=O)[C@@H](NC(=O)[C@H](CCC(=O)O)NC(=O)[C@@H]1CCCN1C(=O)[C@@H]1CCCN1)C(C)C)[C@@H](C)O)[C@@H](C)O)C(=O)N[C@@H](Cc1c[nH]cn1)C(=O)N[C@@H](Cc1ccc(O)cc1)C(=O)N[C@@H](CC(N)=O)C(=O)N[C@@H](Cc1ccc(O)cc1)C(=O)O` was 7900 nM.
As for FPAAPTPAI [p53.76.F119], the IC50 stood at 2.6 nM at HLA-B*0702, 12 nM against B*3501, 7.2 nM on B*5301 and 2.5 nM on B*5401.
The matching figures for FPAPSWPI [p53.86.F118]: 120 nM, 4.8 nM, 3.3 nM and 1.6 nM.
For `CC(C)C[C@H](NC(=O)[C@@H]1CCCN1C(=O)[C@H](Cc1c[nH]c2ccccc12)NC(=O)[C@H](CO)NC(=O)[C@@H]1CCCN1C(=O)[C@H](C)NC(=O)[C@@H]1CCCN1C(=O)[C@@H](N)Cc1ccccc1)C(=O)O` [p53.86.F1] the same measures were 10 nM, 3.1 nM, 4 nM and 9.1 nM.
Take `CC[C@H](C)[C@H](NC(=O)[C@@H]1CCCN1C(=O)[C@H](Cc1c[nH]c2ccccc12)NC(=O)[C@H](CO)NC(=O)[C@@H]1CCCN1C(=O)[C@H](C)NC(=O)[C@@H]1CCCN1C(=O)[C@H](C)NC(=O)[C@@H]1CCCN1C(=O)[C@@H](N)Cc1ccccc1)C(=O)O` [p53.84.F1110]: the IC50 on HLA-B*0702 turned out to be 13 nM; on B*5301 it was 42 nM; on B*5401, 1.2 nM.
As to `CC[C@H](C)[C@H](NC(=O)[C@H](C)NC(=O)[C@H](CCC(N)=O)NC(=O)[C@H](CO)NC(=O)[C@@H]1CCCN1C(=O)[C@H](CC(C)C)NC(=O)[C@@H]1CCCN1C(=O)[C@@H](N)Cc1ccccc1)C(=O)O` [p53.33.F1], the IC50 on B*3501 came out at 720 nM; at B*5401, 83 nM.
On to `CC[C@H](C)[C@H](NC(=O)[C@@H]1CCCN1C(=O)[C@H](C)NC(=O)[C@H](C)NC(=O)[C@@H]1CCCN1C(=O)[C@@H](NC(=O)[C@@H]1CCCN1C(=O)[C@H](C)NC(=O)[C@H](C)NC(=O)[C@@H]1CCCN1C(=O)[C@@H](N)Cc1ccccc1)[C@@H](C)O)C(=O)O` [p53.76.F1111], for which the figures for the IC50 on B*5301 and on B*5401 were 3210 nM and 15 nM, respectively.
Take `CC[C@H](C)[C@H](NC(=O)[C@H](CO)NC(=O)[C@H](CO)NC(=O)[C@H](CO)NC(=O)[C@H](CC(C)C)NC(=O)[C@@H]1CCCN1C(=O)[C@H](Cc1c[nH]c2ccccc12)NC(=O)[C@H](CO)NC(=O)[C@@H]1CCCN1C(=O)[C@@H](N)Cc1ccccc1)C(=O)O` [p53.88.F1110]: the IC50 turned out to be 5.5 nM against HLA-B*0702, 100 nM against B*3501, 8.5 nM on B*5301 and 2.4 nM on B*5401.
The matching figures for `CC[C@H](C)[C@H](NC(=O)[C@@H](NC(=O)[C@@H](NC(=O)[C@@H](NC(=O)[C@@H](NC(=O)[C@H](CC(C)C)NC(=O)[C@@H](NC(=O)[C@@H]1CCCN1C(=O)[C@@H](N)Cc1ccccc1)[C@@H](C)CC)[C@@H](C)O)[C@@H](C)CC)[C@@H](C)CC)[C@@H](C)O)C(=O)O` [p53.249.F119]: 74 nM, 36 nM, 4 nM and 1.8 nM.
As to `CC[C@H](C)[C@H](NC(=O)[C@H](CO)NC(=O)[C@@H]1CCCN1C(=O)[C@H](C)NC(=O)[C@@H]1CCCN1C(=O)[C@H](C)NC(=O)[C@@H]1CCCN1C(=O)[C@@H](N)Cc1ccccc1)C(=O)O` [p53.84.F118], the results for the IC50 at B*3501, against B*5301 and on B*5401 were 327 nM, 131 nM and 6.7 nM, respectively.
Regarding `CC[C@H](C)[C@H](NC(=O)[C@@H]1CCCN1C(=O)[C@@H](NC(=O)[C@@H]1CCCN1C(=O)[C@H](C)NC(=O)[C@H](C)NC(=O)[C@@H]1CCCN1C(=O)[C@@H](N)Cc1ccccc1)[C@@H](C)O)C(=O)O` [p53.76.F118], the IC50 against HLA-B*0702 is 128 nM; at B*3501, 655 nM; against B*5401 it was 3.1 nM.
Take `CC[C@H](C)[C@H](NC(=O)[C@H](C)NC(=O)[C@@H]1CCCN1C(=O)[C@H](C)NC(=O)[C@@H]1CCCN1C(=O)[C@H](C)NC(=O)[C@@H](NC(=O)[C@@H]1CCCN1C(=O)[C@@H]1CCCN1C(=O)[C@@H](N)Cc1ccccc1)C(C)C)C(=O)O` [p53.70.F1110]: the IC50 amounted to 290 nM against HLA-B*0702, 2910 nM against B*5301 and 63 nM at B*5401.

Broadly, the IC50 is the concentration needed to halve the response being measured.
